{"source": "patent US20110306580A1", "about": "(DONG WHA PHARMACEUTICAL CO ., LTD., priority 2009, published 2011)", "tested_on": "ROS17/2.8 cells", "assay": "Cell growth of ROS17/2.8 cells by the MTT method (formed formazan)", "format": "cell-based, rat", "settings": "for activity at 0.02 µM: Rattus norvegicus, 2×10^−5M Test Compound solution diluted 1000 fold, read-out: Amount of formed formazan, Solution 8 (Test Compound alone); for activity at 0.02 µM / Amount of formed formazan, Solution 10 (a group of a drug combination): percentage to Solution 7 addition group, about 48 hours, average ± standard deviation of four wells; for Relative index of Solution 10 (a group of a drug combination) / Amount of formed formazan, Solution 10 (a group of a drug combination): Test Compound in combination with 1α,25-dihydroxyvitamin D3; for Relative index of Solution 10 (a group of a drug combination) / Relative index of Solution 8 (Test Compound alone): amount of formed formazan, Solution 7 = 1.00", "protocol": "100 μL of a 10% FCS-αMEM comprising either DMSO and ethanol (referred to as Solution 7, hereinafter), a Test Compound solution and ethanol (referred to as Solution 8, hereinafter), a 1α,25-dihydroxyvitamin D3 solution and DMSO (referred to as Solution 9, hereinafter) or a Test Compound solution and the 1α,25-dihydroxyvitamin D3 solution (referred to as Solution 10, hereinafter) was dispensed. The ROS17/2.8 cells were inoculated to a medium at a density of 5×10^3 cells/100 μL/well. After culture of the cells for about 48 hours, the effect of Test Compound and 1α,25-dihydroxyvitamin D3 on the cell growth of the ROS17/2.8 cells was evaluated using the MTT method. Namely, after culture of the cells for about 44 hours, an MTT solution (3-[4,5-dimethylthiazol-2-yl]-2,5-diphenyltetrazolium bromide 2 mg/mL) was added in an amount of 25 μL/well, and the cells were further cultured for four hours. After the medium was removed, DMSO was added in an amount of 100 μL/well so as to dissolve the formed formazan. The amount of the formed formazan was determined by measuring the absorbance (at 560 nm) of the solution by a microplate reader.\nThe 10% FCS-αMEM comprising Solution 7 was prepared by diluting DMSO by 1000 fold with the 10% FCS-αMEM, and diluting ethanol by 10000 fold with the 10% FCS-αMEM. The 10% FCS-αMEM comprising Solution 8 was prepared by diluting a 2×10^−5M Test Compound solution by 1000 fold with the 10% FCS-αMEM, and diluting ethanol by 10000 fold with the 10% FCS-αMEM. The 10% FCS-αMEM comprising Solution 9 was prepared by diluting 2×10^−3M 1α,25-dihydroxyvitamin D3 solution by 10000 fold with the 10% FCS-αMEM, and diluting DMSO by 1000 fold with the 10% FCS-αMEM. The 10% FCS-αMEM comprising Solution 10 was prepared by diluting a 2×10^−5M Test Compound solution by 1000 fold with the 10% FCS-αMEM, and diluting 2×10^−3M 1α,25-dihydroxyvitamin D3 solution by 10000 fold with the 10% FCS-αMEM.\nThe amount of the formed formazan in each solution addition group was obtained in terms of a percentage to the average value of the amounts of formed formazan in four wells in a Solution 7 addition group. All the determined values were shown in terms of the average value±standard deviation of the four wells of each solution addition group."}
{"molecule": "Cc1nc(-c2ccc(OCCCCCOc3ccc(/C(N)=N/O)cc3)cc2)c(CCn2ccnc2)s1", "note": "[Compound 23, N-hydroxy-4-{5-[4-(5-(2-(imidazol-1-yl)ethyl)-2-methyl-1,3-thiazol-4-yl)phenoxy]pentoxy}benzamidine]", "values": [{"measurement": "activity at 0.02 µM", "result": "107 ± 5.5", "unit": "%"}, {"measurement": "Relative index of Solution 10 (a group of a drug combination)", "result": 1.23}, {"measurement": "Amount of formed formazan, Solution 10 (a group of a drug combination)", "result": "123 ± 10.2 # %"}, {"measurement": "Relative index of Solution 8 (Test Compound alone)", "result": 1.07}]}
{"molecule": "CCN(C)c1nc(-c2ccc(OCCCCCOc3ccc(/C(N)=N/O)cc3)cc2)c(CN2CCOCC2)s1", "note": "[Compound 33, N-hydroxy-4-{5-[4-{2-ethylmethylamino-5-(morpholin-4-ylmethyl)-1,3-thiazol-4-yl)phenoxy]pentoxy}benzamidine]", "values": [{"measurement": "activity at 0.02 µM", "result": "106 ± 1.7", "unit": "%"}, {"measurement": "Relative index of Solution 10 (a group of a drug combination)", "result": 1.13}, {"measurement": "Amount of formed formazan, Solution 10 (a group of a drug combination)", "result": "113 ± 1.9 ## %"}, {"measurement": "Relative index of Solution 8 (Test Compound alone)", "result": 1.06}]}
{"molecule": "CCc1sc(N(C)Cc2ccccc2)nc1-c1ccc(OCCCCCOc2ccc(/C(N)=N/O)cc2)cc1", "note": "[Compound 10, N-hydroxy-4-{5-[4-(2-benzylmethylamino-5-ethyl-1,3-thiazol-4-yl)phenoxy]pentoxy}benzamidine]", "values": [{"measurement": "activity at 0.02 µM", "result": "99 ± 2.5", "unit": "%"}, {"measurement": "Relative index of Solution 10 (a group of a drug combination)", "result": 1.11}, {"measurement": "Amount of formed formazan, Solution 10 (a group of a drug combination)", "result": "111 ± 1.3 # %"}, {"measurement": "Relative index of Solution 8 (Test Compound alone)", "result": 0.99}]}
{"molecule": "CC(C)c1sc(N(C)C)nc1-c1ccc(OCCCCCOc2ccc(/C(N)=N/O)cc2)cc1", "note": "[Compound 17, N-hydroxy-4-{5-[4-(5-isopropyl-2-dimethylamino-1,3-thiazol-4-yl)phenoxy]pentoxy}benzamidine]", "values": [{"measurement": "activity at 0.02 µM", "result": "97 ± 1.3", "unit": "%"}, {"measurement": "Relative index of Solution 10 (a group of a drug combination)", "result": 1.13}, {"measurement": "Amount of formed formazan, Solution 10 (a group of a drug combination)", "result": "113 ± 1.7 # %"}, {"measurement": "Relative index of Solution 8 (Test Compound alone)", "result": 0.97}]}
{"molecule": "N/C(=N\\O)c1ccc(OCCCCCOc2ccc(-c3nc(-c4cccnc4)sc3Cc3ccccc3)cc2)cc1", "note": "[Compound 2, N-hydroxy-4-{5-[4-(5-benzyl-2-(pyridin-3-yl)-1,3-thiazol-4-yl]phenoxy]pentoxy}benzamidine]", "values": [{"measurement": "activity at 0.02 µM", "result": "103 ± 3.1", "unit": "%"}, {"measurement": "Relative index of Solution 10 (a group of a drug combination)", "result": 1.17}, {"measurement": "Amount of formed formazan, Solution 10 (a group of a drug combination)", "result": "117 ± 2.6 # %"}, {"measurement": "Relative index of Solution 8 (Test Compound alone)", "result": 1.03}]}
{"molecule": "CC(C)c1nc(-c2ccc(OCCCCCOc3ccc(/C(N)=N/O)cc3)cc2)c(CCN2CCSCC2)s1", "note": "[Compound 27, N-hydroxy-4-{5-[4-(2-isopropyl-5-(2-(thiomorpholin-4-yl)ethyl)-1,3-thiazol-4-yl)phenoxy]pentoxy}benzamidine]", "values": [{"measurement": "activity at 0.02 µM", "result": "98 ± 1.9", "unit": "%"}, {"measurement": "Relative index of Solution 10 (a group of a drug combination)", "result": 1.12}, {"measurement": "Amount of formed formazan, Solution 10 (a group of a drug combination)", "result": "112 ± 0.9 ## %"}, {"measurement": "Relative index of Solution 8 (Test Compound alone)", "result": 0.98}]}
{"molecule": "Cc1nc(-c2ccc(OCCCCCN(C)c3ccc(/C(N)=N/O)cc3)cc2)c(C(C)C)s1", "note": "[Compound 19, N-hydroxy-4-{5-[4-(5-isopropyl-2-methyl-1,3-thiazol-4-yl)phenoxy]pentylmethylamino}benzamidine]", "values": [{"measurement": "activity at 0.02 µM", "result": "108 ± 2.7", "unit": "%"}, {"measurement": "Relative index of Solution 10 (a group of a drug combination)", "result": 1.19}, {"measurement": "Amount of formed formazan, Solution 10 (a group of a drug combination)", "result": "119 ± 4.8 # %"}, {"measurement": "Relative index of Solution 8 (Test Compound alone)", "result": 1.08}]}
{"molecule": "CCc1nc(-c2ccc(OCCCCCOc3ccc(/C(N)=N/O)cc3)cc2)c(CC2CCCC2)s1", "note": "[Compound 4, N-hydroxy-4-{5-[4-(5-cyclopentylmethyl-2-ethyl-1,3-thiazol-4-yl)phenoxy]pentoxy}benzamidine]", "values": [{"measurement": "activity at 0.02 µM", "result": "105 ± 1.9", "unit": "%"}, {"measurement": "Relative index of Solution 10 (a group of a drug combination)", "result": 1.12}, {"measurement": "Amount of formed formazan, Solution 10 (a group of a drug combination)", "result": "112 ± 1.6 # %"}, {"measurement": "Relative index of Solution 8 (Test Compound alone)", "result": 1.05}]}
